# Laboratory results taken from US11944701B2, “Protection of materials by sphingosine based compounds” (STICHTING VU, priority 2012, dated 2024).
# Like-named read-outs stand apart in the source and are kept apart here.
# Tests used:
# [1] = Erosion test: weight loss of HAP disks after exposure to citric acid; conditions: for protection of HAP: 100 μg/ml in Tris-Tween, 3 hrs
# Experimental: Dental enamel consists largely of hydroxyapatite crystals (Ca10(PO4)6(OH)2. Sintered at high temperatures, hydroxyapatite discs can be produced with physical characteristics (e.g. hardness and density) resembling those of enamel (Anderson et al, 2004), which can be used to determine erosive properties of solutions (Jensdottir et al, 2005) by measuring weight loss from hydroxyapatite after immersion in an erosive (acidic) solution.
# Hydroxyapatite discs, sintered at 1250° C. and with a relative density of 98% were obtained from Swerea, Stockholm, Sweden. The lateral and bottom surfaces of the discs were covered with nail polish so that one side remained uncoated. Next, discs were cleaned by sanding with sand paper (3M734 P600) rinsed with demineralised water, dried at 37° C. overnight and weighed to determine the initial mass. Hydroxyapatite discs were placed in the wells of 12 well cell culture plates (Greiner bio-one, Frickenhausen, Germany), to which was added 1.5 ml of phytosphingosine (PHS in various concentrations dissolved in saliva buffer (2 mM potassium phosphate, 50 mM KCl, 1 mM CaCl2, 0.1 mM MgCl2, pH 6.8) under gently shaking for 3 hours at 37° C. After three times rinsing with 4 ml saliva buffer to remove unbound PHS, discs were placed in new wells with 4 ml of 0.1 M citric acid (pH=3.0). After 30 minutes citric acid was pipetted off and discs were rinsed 3 times with 4 ml demineralized water, dried overnight at 37° C. and weighted. The difference in weight before and after the erosive treatment was taken as a measure for erosion. The experiments were conducted in triplicate and were repeated at least two times. Formation of saliva pellicle on HAP discs was achieved as follows: saliva was collected without conscious stimulation, as described previously (Navazesh, 1993). Saliva was cleared from cellular debris by centrifugation at 10,000 g for 10 minutes. The supernatant (HWS) was collected and used for coating HAP disks with a salivary pellicle. For this purpose, HAP disks were incubated with 4 ml HWS at 37° C. After 3 hrs, disks were rinsed 3 times with distilled water to remove unbound protein. Subsequently, the protective effect of PHS on saliva-coated HAP was tested as described above for bare HAP.
# Protection of HAP against erosion was determined essentially as described by Jensdottir et al, (2005), by measuring weight loss from HAP disks before and after immersion in an erosive (acidic) solution using a Sartorius GD503 analytical precision scale. For the erosion experiments, the lateral and bottom surfaces of the disks were covered with nail polish leaving the circular upper surface uncoated. Next, disks were cleaned by sanding with fine sand paper (3M734 P600), rinsed with demineralised water, dried at 37° C. overnight and weighed to determine the initial mass. Stock solutions of lipids were prepared in ethanol to a concentration of 5 mg/ml. These stock solutions were diluted further to the desired concentration in the working buffer. Working solutions of PHS were prepared in saliva buffer (2 mM potassium phosphate, 50 mM KCl, 1 mM CaCl2, 0.1 mM MgCl2, pH 6.8) or in 20 mM Tris (pH 6.8) supplemented with 0.1% Tween 20 (Tris-Tween). HAP disks were placed in the wells of 12 well cell culture plates (Greiner bio-one, Frickenhausen, Germany), to which 1.5 ml of the lipid solutions was added and incubated under gentle shaking for 3 hours at 37° C. After three times rinsing with 4 ml of the incubation buffer to remove unbound lipid, disks were incubated with 4 ml of 0.1 M citric acid (pH=3.0). […] The difference in weight before and after the erosive treatment was taken as a measure for erosion. All incubations were conducted in triplicate and each experiment was repeated at least two times.
# Streptococcus mutans = experiment: Antifouling activity of sphingolipids coated on HA discs; assay type: cell-based; conditions: HA discs coated with 100 μg/ml lipid; 2 hr with bacteria
# Experimental: (§1) Six different sphingolipids including PHS, PHS phosphate, Sphingosine, Sphinganine, Stearoyl PHS and Sphingomyelin were tested for their antifouling properties against two primary colonizers i.e.—Streptococcus sanguinis and Streptococcus gordonii and a late colonizer, Streptococcus mutans.
# (§2) HA discs were incubated 0/N with 100 μg/ml lipid at 37° C. Subsequently, the discs were washed to remove unbound lipid. Then the lipid-coated HA discs were incubated for 2 hr with 1.5 ml of ˜10^7 cells/ml. After washing, the adherent bacterial cells were desorbed by sonication and transferred to agar plates. After 48 hr CFUs were counted.
# Streptococcus gordonii = experiment: as above; assay type: cell-based; conditions: HA discs coated with 100 μg/ml lipid; 2 hr with bacteria
# Experimental: as §1, §2
# [2] = in saliva buffer; cited from earlier work
# [3] = PHS adsorption to HAP (OPA fluorimetry)
# Experimental: PHS was dissolved in concentrations ranging from 0 to 500 μg/ml in 20 mM Tris buffer supplemented with 0.1% Tween 20 (pH 6.8) (Tris-Tween). Tween 20 was added to keep PHS in solution. Disks were incubated with the PHS solutions for 18 h, and then rinsed with demin water (3 times) to remove unbound PHS. HAP bound PHS was extracted by incubation with 1.5 ml methanol for 90 minutes. Since nail polish dissolved in methanol, in the binding experiments HAP disks were used without nail polish. It was verified that no PHS was adsorbed to the plastic, by conducting control incubations without disks. After evaporation, the residue was dissolved in 250 μl of methanol. To 100 of this solution 25 μl ortho-phtaldialdehyde reagent (OPA, Sigma-Aldrich) to enable fluorimetric quantification of bound PHS. Fluorescence was measured on a Fluostar microplate reader at excitation/emission wavelengths of 380 nm/450 nm. Absolute quantities were determined by reference to a standard curve of PHS. All incubations were conducted in triplicate and the experiment was repeated two times.
# Solubility of PHS = assay type: physicochemical
# Streptococcus sanguinis = experiment: Antifouling activity of sphingolipids coated on HA discs; assay type: cell-based; conditions: HA discs coated with 100 μg/ml lipid; 2 hr with bacteria
# Experimental: as §1, §2
molecule,measurement,setting,value
4-hydroxysphinganine-1-phosphate [PHS phosphate],protection against subsequent erosive attack by citric acid,[1]; 200 μg/ml in saliva buffer,did not afford protection
"CCCCCCCCCCCCCCC(O)[C@@H](O)[C@@H](N)COP(=O)(O)O (stereo partly drawn) [PHS phosphate, 4-hydroxysphinganine-1-phosphate]",antifouling activity (reduction of adherent bacteria),Streptococcus mutans,~2 log CFU/ml
same,reduction in bacterial adherence,Streptococcus gordonii,1.5 log values
same,protection of HAP,[1]; 0.1 M citric acid 30 minutes,protection that was comparable to that by PHS
"CCCCCCCCCCCCCC[C@@H](O)[C@@H](O)[C@@H](N)CO [PHS, phytosphingosine]",solubility,[2],poorly soluble
same,PHS adsorbed onto the surface of the disk,"[3]; at maximal adsorption (60 μg/ml and higher), Tris-Tween",approximately 12 μg
same,time to equilibrium of the initial fast phase of binding,"[3]; biphasic time course, gradual increase over the next 15 hrs",≤ 1 h
same,PHS concentration at which maximal adsorption occurred,[3]; in Tris-Tween,≥ 60 µg/mL
same,adsorption to saliva-incubated HAP disks compared to control,"[3]; overnight incubation with saliva, then PHS, control saliva buffer",even higher amounts of PHS adsorbed
same,share of the maximal adsorption level reached,[3]; within 5 minutes,> 65%
same,amount adsorbed,"[3]; within one minute, fixed PHS concentration",substantial amount
same,effect on the pH of citric acid,[1],no effect
same,protection when present in the erosive fluid,"[1]; 0.1 M citric acid in the presence of 100 ug/ml PHS, 30 minutes, untreated HAP disks",protects against erosion even with untreated HAP disks
same,duration of the protective effect,"[1]; 1 hour exposure to citric acid, 50 μg/ml PHS (FIG. 3)",still protected
same,protection of disks covered with a salivary pellicle (CHWS) versus controls,"[1]; 20 hrs CHWS, then 100 μg/ml PHS in TrisT 3 hrs, 0.1 M citric acid 30 minutes",protected to the same extent
same,protection against dissolution by citric acid relative to the control disks,"[1]; HAP discs pretreated, then 0.1 M citric acid (pH=3) for 30 minutes",more than 80%
same,PHS concentration at which virtually maximal protection was achieved,"[1]; HAP disks incubated 3 hrs with PHS, citric acid 30 minutes",> 20 µg/mL
same,protection of saliva-coated HAP versus uncoated HAP,[1]; HAP disks preincubated with human saliva (salivary pellicle),to the same extent
same,protection at 500 and 50 μg/ml,[1]; PHS 500 and 50 μg/ml,comparable protection
same,protection at 5 ug/ml,[1]; PHS concentration lowered to 5 ug/ml,steep decrease in protection
same,protection with PHS dissolved in Tris-Tween compared with saliva buffer,[1]; PHS dissolved in Tris-Tween,essentially the same protection
same,less weight loss compared to the untreated control disks,"[1]; PHS in saliva buffer, subsequent erosive challenge 0.1 M citric acid (pH=3) 30 minutes",70-80%
same,protection by pre-treatment,"[1]; pretreated 100 ug/ml 3 hours, 0.1 M citric acid (pH=3.0) 30 minutes",protects against the erosive effects of citric acid
same,effect of solvent used for stock solution on protection,"[1]; stock 5 mg/ml in DMSO or ethanol, with or without sonication, 3 hr incubation",No difference
same,binding level at which protection is maximal,"[1]; submaximal binding, 0.1 M citric acid (pH 3.0) 30 minutes",approximately 6 μg per disk
same,solubility,"Solubility of PHS; in Tris-Tween, concentration before and after centrifugation 10 minutes 10,000 g",completely soluble
same,solubility,Solubility of PHS; in water,moderately soluble
CCCCCCCCCCCCCCC[C@@H](O)[C@@H](N)CO [Sphinganine],reduction of adherent bacteria,Streptococcus mutans,3 log
same,reduction in bacterial adherence,Streptococcus gordonii,1.5 log values
same,reduction in bacterial adherence,Streptococcus sanguinis,2 log value
same,protection of HAP,[1]; 0.1 M citric acid 30 minutes,protection that was comparable to that by PHS
same,effect of phosphate in the buffer on efficacy,[1]; FIG. 8,"more effective when provided in a buffer not containing, or containing a minimal amount of, phosphate"
same,protection against citric acid,[1]; used in a Tris buffer (FIG. 8),protected against citric acid
same,protection against citric acid,[1]; used in a buffer containing phosphate ions,not when used in a buffer containing phosphate ions
"CCCCCCCCCCCCCCCCCC(=O)N[C@@H](CO)[C@H](O)C(O)CCCCCCCCCCCCCC (stereo partly drawn) [Stearoyl PHS, N-stearoyl 4-4-hydroxysphinganine]",antifouling activity (reduction of adherent bacteria),Streptococcus mutans,~2 log CFU/ml
CCCCCCCCCCCCC/C=C/[C@@H](O)[C@@H](N)CO [sphingosine],protection of HAP,[1]; 0.1 M citric acid 30 minutes,protection that was comparable to that by PHS
Di-myroistyl phosphatidylcholine [reference compound],protection of HAP,[1]; 0.1 M citric acid 30 minutes,did not protect HAP
sphingomyelin [reference compound],reduction in bacterial adherence,Streptococcus sanguinis,1 log value
same,protection of HAP,[1]; 0.1 M citric acid 30 minutes,did not protect HAP
